As usually defined, the solubility is how much of the substance goes into solution per volume.

Results on 5 compounds are retold here after paper PMC11997985, “Synthesis and In Vitro Profiling of Psilocin Derivatives: Improved Stability and Synthetic Properties” (Journal of Medicinal Chemistry, 2025).

Several values for one entry are separate records, joined by “and”; a condition that tells them apart may be missing. Identical values can stand only once. Marks after values point to notes of the source that are not given here.

The nature of series [1]: Plasma stability in human plasma. The settings on record: for half-life at 1 μM / remaining at 12 s, 1 μM / remaining at 5 min, 1 μM / remaining at 10 min, 1 μM / remaining at 0.5 h, 1 μM / remaining at 1 h, 1 μM / remaining at 2 h, 1 μM / remaining at 4 h, 1 μM: human, pooled human plasma; for half-life at 1 μM: 37 °C, read-out: T ½ in human plasma; for remaining at 12 s, 1 μM: 0.2 min (first sample, reference); for remaining at 0.5 h, 1 μM: 30 min; for remaining at 1 h, 1 μM: 60 min; for remaining at 2 h, 1 μM: 120 min; for remaining at 4 h, 1 μM: 240 min; for degradation in human plasma: sampling at 5 min and later. It is filed as in vitro ADME. The source says: It should be noted that esterase-labile compounds are notoriously difficult to study in microsomal stability studies.[36]
Materials for experiments described in the supporting information (solubility) […]
Dimethylsulfoxide (DMSO) CHROMASOLV™ Plus, >99.7%
Acetonitrile (MeCN) LiChrosolv, hypergrade for LC-MS, Merck Chemicals
Formic acid (HCOOH) For LC-MS, Carlo-Erba
Water > 18MΩcm quality (Milli-Q, Millipore
Di-sodium-hydrogenphoshate dihydrate Merck
Sodium-dihydrogenphosphate monohydrate Merck
Autosampler Agilent 1260 Multisampler, G7167A
Gradient LC-pump Agilent 1260 Flexible Pump, G7104C
Analytical Flow 0.5 mL/min
Analytical column Luna® Omega 1.6 µm Polar C18 100Å, 50 x 2.1 mm
Injection volume 3.0 µL (15 µL for “high” injection of buffer sample) […]
Mobile phase A H2O/MeCN/Formic acid 95/5/0.1
Mobile phase B H2O/MeCN/Formic acid 5/95/0.1
Materials and analytical parameters for FT-ICR-MALDI-HRMS
The high-resolution mass spectrometry (HR-MS) experiments were performed using a MALDI-Fourier-transform ion cyclotron resonance (FTICR) (7T solariX XR-2ω, Bruker Daltonics) mass spectrometer equipped with a Smartbeam II 2 kHz laser. Briefly, a stock solution (1mg/ml) of the compound 5 was prepared and mixed 1:1 with a matrix solution containing DHB (40 mg/ml) in 50% ACN (0.02% TFA). 1 µl of the mixed solution was spotted onto MPTP MALDI target plate (Bruker Daltonics) and dried at room temperature. The instrument was tuned for optimal detection of small molecules (m/z 86–500) in positive polarity using the quadrature phase detection (QPD) (2ω) mode. The method was calibrated with red phosphorus over the mass range and DHB matrix ion [2M–2H2O+H]+ m/z 273.039364 was used as lock mass.
Incubation samples. 10 mM stock solutions of test compounds in DMSO were used to prepare 100 μM solutions by dilution in EtOH/water 25/75 (v/v). 6 μL of the 100 μM solution was spiked into 594 μL pre-warmed plasma at 37 °C giving a final concentration of 1 μM. The incubation tube was then mixed on a vortex. A sample (60 μL) was taken and added to an Eppendorf tube containing 180 μL acetonitrile. The tube was thoroughly mixed with a vortex. The precipitated sample was then treated with centrifugation (10.000 g, 10 minutes, 18 °C), 150 μL of the supernatant was mixed with 450 μL water directly into a LC-vial (glass). This step was repeated for every time point. The first time point was approximately taken 15-20 seconds after spiking.
Other timepoints were 5,10, 30, 60, 120, 240 minutes. Pre-precipitated samples. 594 μL of pre-warmed plasma was precipitated with 1800 μL ACN. 6 μL of the 100 μM solution was spiked into the precipitated plasma. 1 mL was removed and added to an Eppendorf tube. After a centrifugation step (10.000 g, 10 minutes, 18 °C), 150 μL of the supernatant was mixed with 450 μL water directly into a LC-vial (glass).
Metabolic stability in human microsomes
The assay was run at 37°C with a microsomal protein concentration of 0.5 mg/mL and a compound concentration of 1 μM in a 0.1 M potassium phosphate buffer at pH 7.4. The compounds were added to the microsome suspension whereafter the enzymatic reaction was initiated by the addition of the co-factor NADPH, giving a final NADPH concentration of 1 mM (Table 9). Samples […]
Plasma stability. The compounds were incubated separately at a concentration of 1 μM in +37°C pre-warmed pooled human plasma from commercial resources. The incubations were performed over a four-hour period with the first sample taken after addition of the compounds to plasma followed by a thorough mixing, with further sampling at 5, 10, and 30 minutes as well as 1,

The nature of series [2]: Peak area in microsome suspension compared with compounds in solution. The series is classed as in vitro ADME, human. To be noted: peak area 15 seconds after addition of NADPH versus same amount (125 nM) in H2O/EtOH. An outline of the steps:
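Compounds at 125 nM equilibrated about five minutes in microsome suspension; peak area measured about 0.25 min after NADPH addition and compared with the same amount in H2O/EtOH (75:25) solution, expressed as percent found.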

Series [3] in a line: Metabolic stability in human microsomes. It is filed as in vitro ADME. The settings on record: for Metabolic stability in human microsomes: 37 °C, 0.5 mg/mL protein, 1 μM compound, 1 mM NADPH; for Comment on microsome assay: Table S3.
Series [4] in a line: Chemical stability in 1.0 M NaHCO3 and 1.0 M HCl.
The nature of series [5]: Solubility, screen method, phosphate buffer pH 7.4, 1% DMSO. The series is classed as physicochemical. The settings on record: phosphate buffer with 1% DMSO; 100 mM phosphate buffer pH 7.4, 1% DMSO; assay range 0.1 to 100 μM.
A further series concerns porcine liver esterase. The series can be described thus: Stability in FaSSIF supplemented with esterase. The settings on record: for % prodrug remaining, measured after 1 min: after 1 min at 20 IU/mL; for predicted half-life: at 270 IU/mL; for predicted abs.: calculated remaining prodrug available for GI absorption, predicted level after 5 min at 270 IU/mL (% remaining prodrug); for half-life at 0.292 mM: pig, FaSSIF supplemented with porcine liver esterase (20 IU/mL); for % prodrug remaining, no esterase 30 min: after 30 min with no esterase.

For `CN(C)CCc1c[nH]c2cccc(OCc3ccccc3)c12` [Compound 3, 4-Benzyloxy-N,N-dimethyltryptamine], in series [1], the half-life at 1 μM is greater than 8 h; the share remaining at 12 s, 1 μM worked out at 100%; the fraction remaining at 5 min, 1 μM came to 103%; the share remaining at 10 min, 1 μM came to 103%. Moreover, in series [1], the fraction remaining at 0.5 h, 1 μM was 105%; the share remaining at 1 h, 1 μM was 111%; the amount remaining at 2 h, 1 μM worked out at 110%; the amount remaining at 4 h, 1 μM was determined as 107%. For the same compound, in series [1], the “degradation in human plasma” value is “no degradation was observed”. In addition, in series [2], the “% found in microsome suspension” value is listed as 88.5%. Moreover, the “Metabolic stability in human microsomes” value in series [3] was 43 μL/min/mg protein and 44 μL/min/mg protein. Also, the half-life at 5 mM in series [4] (1.0 M HCl) was greater than 167 h. In series [4] (1.0 M NaHCO3), this compound gave a half-life at 5 mM greater than 167 h. Also, the solubility in series [5] is greater than 90 µM.

Regarding `CC(=O)Oc1cccc2[nH]cc(CCN(C)C)c12.O=C(O)/C=C/C(=O)O` [Compound 4a, 4-acetoxy-N,N-dimethyltryptamine], in series [1], the half-life at 1 μM is less than 0.0833 h; the fraction remaining at 12 s, 1 μM stood at 100%; the share remaining at 5 min, 1 μM was determined as 0.2%; the amount remaining at 10 min, 1 μM turned out to be 0.2%. Moreover, in series [1], the fraction remaining at 0.5 h, 1 μM amounted to 0.2%; the share remaining at 1 h, 1 μM is 0.2%; the fraction remaining at 2 h, 1 μM is 0.1%; the share remaining at 4 h, 1 μM is 0.2%. The “degradation in human plasma” value in series [1] is reported as “almost no compound remained”. Also, the “% found in microsome suspension” value in series [2] amounted to 0.0%. In series [3], the “Metabolic stability in human microsomes” value is >200^a μL/min/mg protein and >200 μL/min/mg protein; the “Comment on microsome assay” value is listed as “Rapid degradation”. The half-life at 24 h, 5 mM in series [4] (1.0 M HCl) was found to be 5 h. In addition, in series [4] (1.0 M NaHCO3), the half-life at 24 h, 5 mM turned out to be 15 h. For the same compound, in the series on porcine liver esterase, the “% prodrug remaining, measured after 1 min” value turned out to be 47%; the predicted half-life was 4.2 s; the predicted abs. is on record as 6.2 × 10^–21; the half-life at 0.292 mM stood at 54.6 ± 6 s. Further, the solubility in series [5] stood at 77 µM.

As for `CN(C)CCc1c[nH]c2cccc(OC(=O)C3CC3)c12.O=C(O)/C=C/C(=O)O` [Compound 4g], in series [1], the half-life at 1 μM is less than 0.0833 h; the fraction remaining at 12 s, 1 μM came out at 100%; the fraction remaining at 5 min, 1 μM came out at 1.5%; the share remaining at 10 min, 1 μM came out at 0.1%. Besides, in series [1], the share remaining at 0.5 h, 1 μM turned out to be 0%; the fraction remaining at 1 h, 1 μM is 0%; the fraction remaining at 2 h, 1 μM came to 0%; the share remaining at 4 h, 1 μM was 0%. Besides, in series [1], the “degradation in human plasma” value is “almost no compound remained”. The “% found in microsome suspension” value in series [2] is reported as 58%. Also, in series [3], the “Metabolic stability in human microsomes” value is >200^a μL/min/mg protein and >200 μL/min/mg protein; the “Comment on microsome assay” value is reported as “Rapid degradation”. The half-life at 24 h, 5 mM in series [4] (1.0 M HCl) stood at 100 h. In series [4] (1.0 M NaHCO3), the half-life at 24 h, 5 mM is 183 h. In the series on porcine liver esterase, the “% prodrug remaining, measured after 1 min” value stood at 57%; the “% prodrug remaining, no esterase 30 min” value turned out to be 100%; the predicted half-life is 5.4 s; the predicted abs. is 1.9 × 10^–15. In the series with porcine liver esterase, this compound displayed a half-life at 0.292 mM of 73.2 ± 2.4 s. Also, the solubility in series [5] is greater than 90 µM.

As for `CCOC(=O)Oc1cccc2[nH]cc(CCN(C)C)c12.O=C(O)/C=C/C(=O)O` [Compound 4i], in series [1], the half-life at 1 μM was less than 0.0833 h; the share remaining at 12 s, 1 μM turned out to be 100%; the fraction remaining at 5 min, 1 μM worked out at 0%; the share remaining at 10 min, 1 μM came to 0%. For the same compound, in series [1], the amount remaining at 0.5 h, 1 μM came to 0%; the share remaining at 1 h, 1 μM was determined as 0%; the share remaining at 2 h, 1 μM stood at 0%; the amount remaining at 4 h, 1 μM was 0%. Besides, in series [1], the “degradation in human plasma” value was “almost no compound remained”. Besides, the “% found in microsome suspension” value in series [2] is given as 7.1%. Besides, in series [3], the “Metabolic stability in human microsomes” value is >200^a μL/min/mg protein and >200 μL/min/mg protein; the “Comment on microsome assay” value was “Rapid degradation”. For the same compound, the half-life at 5 mM in series [4] (1.0 M HCl) is greater than 167 h. The same compound displayed a half-life at 24 h, 5 mM in series [4] (1.0 M NaHCO3) of 50 h. In the series on porcine liver esterase, the “% prodrug remaining, measured after 1 min” value is 28%; the “% prodrug remaining, no esterase 30 min” value was 100%; the predicted half-life was 2.4 s; the predicted abs. is listed as 2.6 × 10^–35. In addition, the half-life at 0.292 mM in the series with porcine liver esterase amounted to 33.6 ± 7.2 s. Also, in series [5], the solubility was found to be 88 µM.

For the compound `CN(C)CCc1c[nH]c2cccc(OP(=O)(O)O)c12` [Compound 8, 4-phosphoryloxy-N,N-dimethyltryptamine, reference compound], in series [1], the half-life at 1 μM was greater than 8 h; the amount remaining at 12 s, 1 μM is 100%; the fraction remaining at 5 min, 1 μM stood at 135%; the share remaining at 0.5 h, 1 μM came out at 130%. Also, in series [1], the amount remaining at 1 h, 1 μM is 122%; the share remaining at 2 h, 1 μM came out at 127%; the fraction remaining at 4 h, 1 μM came out at 122%; the “degradation in human plasma” value is reported as “no degradation was observed”. The “% found in microsome suspension” value in series [2] is on record as 81.5%. Besides, the “Metabolic stability in human microsomes” value in series [3] was <10/<10^b μL/min/mg protein and <10 μL/min/mg protein. In addition, the half-life at 5 mM in series [4] (1.0 M HCl) was greater than 167 h. In addition, in series [4] (1.0 M NaHCO3), the half-life at 24 h, 5 mM was found to be 250 h.
